Data set [1] deals with human α1β3γ2 GABAA receptors (Homo sapiens, UniProt P14867+P28472). Description: Modulation of [3H]muscimol binding to GABAA receptor membranes from HEK293 cells. The settings on record: 2 nM [3H]muscimol.
Data set [2] addresses purified human α1β3γ2 GABAA receptor (Homo sapiens, UniProt P14867+P28472). Type of data set: binding.
The nature of another data set: Partition coefficient. Format: physicochemical. The settings on record: difference to alphaxalone.
Another data set concerns the target purified α1β3γ2 GABAARs (Homo sapiens, UniProt P14867+P28472). Type of data set: binding. The settings on record: 3.5 μM [3H]azietomidate.
The next data set relates to GABAAR. The settings on record: read-out: Potentiation EC50; bulk phase concentration; cited from earlier work.

human α1β3γ2 GABAA receptors, sequence (P14867 28-456): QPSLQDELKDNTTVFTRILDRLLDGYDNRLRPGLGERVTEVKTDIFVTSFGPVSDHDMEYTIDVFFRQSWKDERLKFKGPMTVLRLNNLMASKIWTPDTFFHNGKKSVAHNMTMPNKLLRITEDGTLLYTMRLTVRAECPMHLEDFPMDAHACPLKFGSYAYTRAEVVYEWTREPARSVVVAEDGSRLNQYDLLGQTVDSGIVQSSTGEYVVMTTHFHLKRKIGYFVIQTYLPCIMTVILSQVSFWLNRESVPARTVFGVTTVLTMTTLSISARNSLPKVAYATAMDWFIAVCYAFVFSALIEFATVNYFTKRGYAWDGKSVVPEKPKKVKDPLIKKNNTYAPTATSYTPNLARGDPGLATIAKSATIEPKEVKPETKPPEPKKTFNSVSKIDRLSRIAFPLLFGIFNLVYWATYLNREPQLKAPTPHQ
human α1β3γ2 GABAA receptors, sequence (P28472 26-473): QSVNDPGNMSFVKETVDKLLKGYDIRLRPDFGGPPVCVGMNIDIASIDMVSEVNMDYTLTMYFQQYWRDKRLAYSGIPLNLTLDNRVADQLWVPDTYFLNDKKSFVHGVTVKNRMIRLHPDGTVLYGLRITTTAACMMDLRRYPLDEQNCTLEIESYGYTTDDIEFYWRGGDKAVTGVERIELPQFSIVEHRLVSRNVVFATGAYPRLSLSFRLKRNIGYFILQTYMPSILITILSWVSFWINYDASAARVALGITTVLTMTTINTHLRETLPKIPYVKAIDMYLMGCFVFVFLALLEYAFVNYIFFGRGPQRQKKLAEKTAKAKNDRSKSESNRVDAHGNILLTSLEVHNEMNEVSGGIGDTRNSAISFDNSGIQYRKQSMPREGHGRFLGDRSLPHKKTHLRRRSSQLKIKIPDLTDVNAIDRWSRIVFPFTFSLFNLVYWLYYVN
human α1β3γ2 GABAA receptors, sequence (P18507 40-475 partner): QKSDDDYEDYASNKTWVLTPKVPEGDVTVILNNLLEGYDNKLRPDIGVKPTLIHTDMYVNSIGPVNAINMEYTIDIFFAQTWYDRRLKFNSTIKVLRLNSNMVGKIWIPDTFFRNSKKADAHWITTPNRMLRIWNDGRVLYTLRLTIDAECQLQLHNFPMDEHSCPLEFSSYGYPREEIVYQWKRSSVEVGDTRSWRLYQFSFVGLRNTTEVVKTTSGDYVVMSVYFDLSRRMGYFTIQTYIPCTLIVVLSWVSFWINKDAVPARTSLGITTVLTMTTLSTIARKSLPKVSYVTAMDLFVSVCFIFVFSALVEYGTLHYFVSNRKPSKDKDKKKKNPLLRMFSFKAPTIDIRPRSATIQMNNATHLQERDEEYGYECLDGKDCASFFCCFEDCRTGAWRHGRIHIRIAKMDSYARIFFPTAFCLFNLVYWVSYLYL
purified human α1β3γ2 GABAA receptor, sequence (P14867 28-456): as the sequence (P14867 28-456) above
purified human α1β3γ2 GABAA receptor, sequence (P28472 26-473): as the sequence (P28472 26-473) above
purified human α1β3γ2 GABAA receptor, sequence (P18507 40-475 partner): as the sequence (P18507 40-475 partner) above
purified α1β3γ2 GABAARs, sequence (P14867 28-456): as the sequence (P14867 28-456) above
purified α1β3γ2 GABAARs, sequence (P28472 26-473): as the sequence (P28472 26-473) above
purified α1β3γ2 GABAARs, sequence (P18507 40-475 partner): as the sequence (P18507 40-475 partner) above

Take `CC(=O)[C@H]1CC[C@H]2[C@@H]3CC[C@H]4C[C@H](O)CC[C@]4(C)[C@H]3C3(C[C@]12C)N=N3` [11-aziAP, 11-Aziallopregnanolone]: in data set [1], the “Efficacy of modulation of [3H]muscimol binding” value is recorded as 227 ± 2% and the “Hill coefficient of enhancement of [3H]muscimol binding” value worked out at 1.1 ± 0.2. Also, the “Enhancement of photolabeling by both probes ([3H]azietomidate, [3H]R-mTFD-MPAB)” value in data set [2] (0.3 and 1 μM) is on record as “to the same extent as GABA or alphaxalone”.

With `CC(=O)[C@H]1CC[C@H]2[C@@H]3CC[C@H]4C[C@H](O)CC[C@]4(C)[C@H]3[C@@H](OC(=O)c3c(F)c(F)c(N=[N+]=[N-])c(F)c3F)C[C@]12C` [F4N3Bzox-AP, 11β-(4-Azido-2,3,5,6-tetrafluorobenzoyloxy)-3α-hydroxy-5α-pregnane-20-one], in data set [1], the “Efficacy of modulation of [3H]muscimol binding” value is on record as 228 ± 4% and the “Hill coefficient of enhancement of [3H]muscimol binding” value is listed as 1.9 ± 0.1. Also, the “Higher lipophilicity as compared to alphaxalone” value in “Partition coefficient” is given as “ca. 1.5 log P units”.

For the compound `CC(c1ccccc1)n1cncc1C(=O)OCCC1(C)N=N1` (stereo not drawn) [[^3H]azietomidate, reference compound], the “Pharmacologically specific subunit photolabeling (inhibitable by etomidate)” value in data set [2] ([3H]azietomidate subunit photolabeling) stood at 80%. Besides, at purified α1β3γ2 GABAARs, the α-subunits photolabeled came out at 10%.

What is called EC50 is the concentration giving half of the maximal effect. Consider `CC(=O)[C@H]1CC[C@H]2[C@@H]3CC[C@H]4C[C@H](O)CC[C@]4(C)[C@H]3C(=O)C[C@]12C` [alphaxalone, Alphaxalone], for which the EC50 with GABAAR was 600 nM.

The record behind these values is publication PMC6071317 (European journal of medicinal chemistry, 2017).
